Literature values as cited in US9839604B1, “Composition for an anti-aging treatment” (Parham Tabibian, MD, Inc., priority 2014, dated 2017).

How the values were obtained:
[1] = compared with other forms of Vitamin K1 and K2, also remains in the bloodstream longer
[2] = humectant capacity

levels reached in the bloodstream relative to other forms of Vitamin K1 and K2 [1] | water attracted and bound [2] | Molecule
seven- to eight-fold higher | – | CC(C)=CCC/C(C)=C/CC/C(C)=C/CC/C(C)=C/CC/C(C)=C/CC/C(C)=C/CC/C(C)=C/CC1=C(C)C(=O)c2ccccc2C1=O [MK-7]
– | up to 1800 times its own weight in water | hyaluronic acid
